Experimental data: patent US20090298786A1, “METHODS OF TREATING VIRAL INFECTIONS WITH ANTHRACYCLINE ANTIBIOTICS” (priority 2007, published 2009)
Read-outs that look alike come from different tables or passages of the source.

What was measured:
[1] = target: T1, HCV helicase (helicase domain of NS3 protein) (UniProt P27958); assay: Fluorometric (FRET) antihelicase activity assay; assay type: biochemical, hepatitis C virus (HCV); settings: concentration inhibiting 50% of helicase activity; 10 nM enzyme pre-incubated 15 min with derivative, unwinding at 30° C. for 60 min; read-out: IC50
T1 construct: The helicase domain of NS3 protein was expressed in a baculovirus system in HF insect cell line; fused on or other part: Histidine tag, inferred from the Talon cobalt column purification ('histidine repetitions')
Text: A reaction takes place on a 96- or 384-well microtitration plate and a course of the reaction is observed in real time.
The helicase domain of NS3 protein was expressed in a baculovirus system in HF insect cell line.
In this assay, FAM fluorescence is quenched by fluorescence energy transfer (FRET) to the BHQ molecule, while unwinding of double-stranded DNA structure leads to decrease of FRET phenomenon and increase of FAM fluorescence signal. The assay allows for examining a large number of samples, i.e., different helicase inhibitors at various concentrations and with many repetitions, in standardized conditions. The reaction is conducted in a microtitration plate. The reaction process is observed in real time.
The enzyme (10 nM) was pre-incubated with the tested derivatives dissolved in DMSO (0.005 to 20 μM concentration) without ATP for 15 min at room temperature. The reaction of DNA unwinding was started by addition of ATP and was carried out at 30° C. for 60 min in a Synergy HTi (Biotek) fluorometer. […] Fluorescence was measured every 2 mins.
The enzyme activity was calculated as the initial reaction velocity from the linear part of reaction curve (fluorescence growth as a function of time) using a linear regression method. Inhibition was calculated as comparison of activity of the helicase incubated with inhibitor to activity of the helicase incubated without inhibitor, but with a proper concentration of DMSO, expressed in percent.

[2] = test system: subgenomic HCV genotype 1 (con 1) replicon; assay: Antiviral activity, subgenomic HCV replicon luciferase test in Huh-7 cells; assay type: cell-based, hepatitis C virus
Description: Studies on inhibition of HCV replication, using human liver cancer cell line (Huh7) carrying a subgenomic HCV replicon of genotype 1 (con1) with a reporter/selection fusion protein luc-ubi-neo, were also carried out.
In order to examine antiviral activity and to determine therapeutic index of exemplary anthracycline antibiotics, subgenomic replicon of hepatitis C virus was used, which is a modified genome of HCV lacking structural genes. The replicon was a non-infective form of the virus, and therefore is safe to work with and makes it easier for high-throughput screening of potential inhibitors of its replication.
Additional simplification was the use of reporter protein—luciferase, whose activity (i.e., luminescence generated by it after addition of substrate) was proportional to the amount of the protein expressed, which allowed determination of HCV RNA replication level and its inhibition by virus replication inhibitors.
The human hepatoma cell line Huh-7 and the plasmid pFK-luc-ubi-neo/NS3-3′/Con1/5.1 carrying the subgenomic HCV genotype 1 (con 1) replicon with the luc-ubi-neo reporter/selective fusion protein (Vrolijk J. M. et al., J. Virol. Methods 110: 201-209, 2003), used in the experiments, were provided by Dr. Ralf Bartenschlager (Department of Molecular Virology, University of Heidelberg, Heidelberg). Huh-7 clones carrying persistently-replicating subgenomic HCV replicons were obtained using the following modification of the protocol described by Lohman V. et al. (J. Virol. 75:1437-1449, 2001).
(§1) Huh-7 cells were grown in minimal essential medium (Dulbecco's Modified Minimal Essential Medium, DMEM; Invitrogen) with high glucose concentration (4.5 g/L) supplemented with 2 mM L-glutamine and 1 μM non-essential amino acids, such as: glycine, L-alanine, L-asparagine, L-aspartic acid, L-glutamic acid, L-proline and L-serine, and also with 100 U/mL penicilin, 100 μg/mL streptomycin, and 10% fetal bovine serum (FBS, Sigma). In cultures of cells bearing the subgenomic HCV replicon 250 μg/mL of aminoglycoside antibiotics G418 (Geneticin; Invitrogen) was added to the medium. Cells were grown at 37° C. (5% CO2) and were passaged twice per week, diluted 7 to 10 times, according to the protocol described in Vrolijk J. M. et al., J. Virol. Methods 110:201-209, 2003.
(§2) The Huh-7 cells carrying replicons were cultivated with the following concentrations of anthracycline antibiotics: 5 to 200 nM for 4 days to determine their influence on HCV RNA replication and 5 to 5000 nM for 3 days to determine cytotoxicity. The medium with 1% DMSO was used as a control.
Conditions of the antiviral activity test of antracycline antibiotics were based on the protocol described by Paeshuyse J. et al. (Biochem. Biophys. Res. Commun. 348: 139-144, 2006). A logarithmic culture of HCV replicon-carrying cells was diluted in complete DMEM medium supplemented with 250 μg/ml G418 to the concentration of 5-7×10^3 cells per mL and aliquoted into 96-well white microtitration plate with optical bottom (Nunc) (100 μL per well). After 24 h at 37° C. the medium was removed and dilution of inhibitors in the range of 5 to 200 nM was added in 100 μL of fresh DMEM medium without G418. Huh-7 cells with 1% DMSO were used as a control. After 4 days at 37° C., the medium was removed and 40 μL of mixture of Glo Lysis buffer and Bright-Glo luciferase assay system (Promega) was added to each well. After 2 mins of incubation luminescence was measured with a Synergy HTi (Biotek) device. The experiment was repeated at least three times with three repetitions for each inhibitor concentration.

helicase = settings: Borowski P. et al., Antiviral Res. 55, 397-412, 2002; read-out: IC50 (antihelicase activity); cited from earlier work
[3] = test system: Huh-7 cells carrying replicons; assay: Cytotoxicity (MTT) in HCV replicon-carrying Huh-7 cells; settings: Huh-7 replicon cells, 3 days, MTT, cell growth inhibited by 50%
Description: as §1, §2
(§3) When determining cytotoxicity, as in the antiviral test, logarithmic culture of HCV replicon-carrying cells was diluted in complete DMEM medium supplemented with 250 μg/mL G418 to the concentration of 5−7×10^3 cells per mL and aliquoted into 96-well mictotitration cell culture plate (100 μL per well). After 24 h at 37° C. medium was removed and inhibitors were added at concentrations of 5 to 5000 nM in 100 μL of fresh DMEM medium without G418. After 3 days at 37° C., the medium was removed and 100 μL of fresh DMEM medium with 0.5 mg/mL of MTT (tetrazolium bromide, Sigma) was added to each well. After 3 to 4 hours of incubation at 37° C., the medium with MTT was removed and 100 μL of 0.04 N HCl solution in absolute isopropanol was added to solubilize the precipitated dye. Dye absorbance was measured at 570 nm, while absorbance of the background was measured at 650 nm using Synergy HTi (Biotek). The experiment was repeated at least 3 times with 3 repetitions for each inhibitor concentration.

[4] = as above; settings: human, Huh-7 cells carrying subgenomic HCV replicon
Description: as §1, §2, §3

[5] = Hepatitis C virus, Huh-7, 96 h, Huh-7 replicon cells, 4 days, luminescence reduced by 50%
[6] = Huh-7 replicon cells, 4 days, luminescence reduced by 50%, read-out: EC50

T1 sequence (P27958 1027-1657): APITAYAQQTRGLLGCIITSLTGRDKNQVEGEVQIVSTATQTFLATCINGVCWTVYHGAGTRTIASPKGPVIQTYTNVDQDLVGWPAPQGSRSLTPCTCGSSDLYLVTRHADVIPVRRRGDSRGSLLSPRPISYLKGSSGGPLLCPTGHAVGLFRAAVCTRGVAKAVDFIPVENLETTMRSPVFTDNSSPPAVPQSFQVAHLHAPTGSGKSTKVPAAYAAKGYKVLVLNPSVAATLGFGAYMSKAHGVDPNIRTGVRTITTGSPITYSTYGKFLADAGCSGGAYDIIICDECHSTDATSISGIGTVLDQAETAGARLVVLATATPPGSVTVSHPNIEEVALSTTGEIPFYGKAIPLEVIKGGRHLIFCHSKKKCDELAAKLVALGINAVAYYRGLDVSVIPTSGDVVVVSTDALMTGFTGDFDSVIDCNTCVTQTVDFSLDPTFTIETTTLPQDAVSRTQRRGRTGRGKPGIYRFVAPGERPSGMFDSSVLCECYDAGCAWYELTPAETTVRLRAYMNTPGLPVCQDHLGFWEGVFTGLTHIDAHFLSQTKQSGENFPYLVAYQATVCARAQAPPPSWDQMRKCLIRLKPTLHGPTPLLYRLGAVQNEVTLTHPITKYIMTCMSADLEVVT

Compound	IC50 [1] [nM]	IC50 (helicase) [nM]	EC50 [2, 6] [nM]	CC50 [3] [nM]	further results
COc1cccc2c1C(=O)c1c(O)c3c(c(O)c1C2=O)C[C@@](O)(C(C)=O)C[C@@H]3O[C@H]1C[C@H](N)[C@H](O)[C@H](C)O1 [Daunorubicin, reference compound]	6050	57000	–	–	EC50 [2, 5]: 31.2 nM
COc1cccc2c1C(=O)c1c(O)c3c(c(O)c1C2=O)CC(O)(C(=O)CO)CC3OC1CC(N=C(C)N2CCOCC2)C(O)C(C)O1 (stereo not drawn) [Derivative 54]	510	–	129	4280	–
COc1cccc2c1C(=O)c1c(O)c3c(c(O)c1C2=O)CC(O)(C(C)=O)CC3OC1CC(N=CN2CCCCCC2)C(O)C(C)O1.Cl (stereo not drawn) [Derivative 75]	2330	–	8.4	47.9	activity (EC50) fold higher than that of epidoxorubicin, doxorubicin, epidaunorubicin, or daunorubicin ([2]; HCV replicon): 4 fold
COc1cccc2c1C(=O)c1c(O)c3c(c(O)c1C2=O)CC(O)(C(C)=O)CC3OC1CC(N=C(C)N2CCN(C)CC2)C(O)C(C)O1 (stereo not drawn) [Derivative 94]	80 ± 20	–	–	–	EC50 [2, 5]: 56.9 nM; CC50 at 3 days [4]: 1090 nM
COc1cccc2c1C(=O)c1c(O)c3c(c(O)c1C2=O)CC(O)(C(=O)CO)CC3OC1CC(N=C(C)N2CCOCC2)C(O)C(C)O1 (stereo not drawn) [Derivative 125]	290	–	114	909	–
COc1cccc2c1C(=O)c1c(O)c3c(c(O)c1C2=O)CC(O)(C(=O)CO)CC3OC1CC(N=C(C)N2CCc3ccccc32)C(O)C(C)O1 (stereo not drawn) [Derivative 133]	380	–	138	1570	–
COc1cccc2c1C(=O)c1c(O)c3c(c(O)c1C2=O)C[C@@](O)(C(=O)CO)C[C@@H]3O[C@H]1C[C@H](N)[C@H](O)[C@H](C)O1 [Doxorubicin, reference compound]	–	5000	–	–	EC50 [2, 5]: 31.2 nM; EC50 ([2]; Huh-7 replicon cells, 4 days, luminescence reduced by 50%): 42.9 nM; CC50 at 3 days [4]: 332 nM
COc1cccc2c1C(=O)c1c(O)c3c(c(O)c1C2=O)C[C@@](O)(C(C)=O)C[C@@H]3O[C@H]1C[C@H](N)[C@@H](O)[C@H](C)O1 [Epidaunorubicin, reference compound]	3730	–	31.2	–	–
COc1cccc2c1C(=O)c1c(O)c3c(c(O)c1C2=O)C[C@@](O)(C(=O)CO)C[C@@H]3O[C@H]1C[C@H](N)[C@@H](O)[C@H](C)O1 [Epidoxorubicin, reference compound]	–	750	–	–	CC50 at 3 days [4]: 675 nM
O=C1c2c(O)ccc(O)c2C(=O)c2c(NCCNCCO)ccc(NCCNCCO)c21 [mitoxantrone]	–	6700	–	–	–
COC(=O)[C@@H]1c2cc3c(c(O)c2[C@@H](O[C@@H]2O[C@@H](C)[C@H](OC)[C@@](C)(OC)[C@H]2OC)C[C@]1(C)O)C(=O)c1c(O)cc2c(c1C3=O)O[C@@H]1O[C@@]2(C)[C@H](O)[C@@H](N(C)C)[C@@H]1O [nogalamycin]	–	100	–	–	–
NC(=O)c1ncn([C@@H]2O[C@H](CO)[C@@H](O)[C@H]2O)n1 [ribavirin, reference compound]	–	–	–	–	EC50 ([2]; Hepatitis C virus, Huh-7, ribavirin, comparison drug): 120000 nM
